# Test results: US5597832A (Abbott Laboratories, priority 1994, dated 1997)
# “Also recorded” adds a separate entry of the source. Structures can show the parent of a compound that is named as a salt. Where two headings read alike, the source gives them in different places.
# Key:
# [1] = system: striatal dopamine receptors; experiment: animal or person; format: in vivo; details: Rattus norvegicus, sc, read-out: EC50, rotation behavior
# [2] = system: D-1 receptor; experiment: Adenylate cyclase assay (agonist activity, cAMP); format: biochemical, goldfish retina or rat striatum
# [3] = molecular target: T1, dopamine D-2 receptor (Rattus norvegicus, UniProt P61169); experiment: D-2 receptor competitive binding, [3H]-spiroperidol, homogenized rat caudate; details: rat caudate, [3H]-spiroperidol; read-out: D-2 Ki
# T1 construct: Homogenized rat caudate was the source of the D-2 receptors; from tissue; host or cells: rat caudate homogenate
# T1 sequence (P61169 whole entry): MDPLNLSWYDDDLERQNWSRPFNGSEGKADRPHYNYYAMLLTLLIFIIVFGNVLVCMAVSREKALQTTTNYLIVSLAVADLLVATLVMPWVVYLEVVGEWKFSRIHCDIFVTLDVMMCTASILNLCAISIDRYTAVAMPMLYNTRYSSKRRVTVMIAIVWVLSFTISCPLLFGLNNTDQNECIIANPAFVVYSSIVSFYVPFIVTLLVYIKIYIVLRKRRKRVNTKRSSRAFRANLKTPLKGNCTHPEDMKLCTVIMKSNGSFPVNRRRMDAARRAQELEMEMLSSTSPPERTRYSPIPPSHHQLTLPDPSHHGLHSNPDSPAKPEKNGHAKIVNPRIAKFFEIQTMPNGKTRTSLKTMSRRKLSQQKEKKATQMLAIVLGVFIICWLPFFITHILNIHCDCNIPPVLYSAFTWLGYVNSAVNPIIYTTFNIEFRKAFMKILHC
# [4] = molecular target: dopamine D-1 receptor (Rattus norvegicus, UniProt P18901); experiment: biochemical
# Chain of dopamine D-1 receptor (P18901 whole entry): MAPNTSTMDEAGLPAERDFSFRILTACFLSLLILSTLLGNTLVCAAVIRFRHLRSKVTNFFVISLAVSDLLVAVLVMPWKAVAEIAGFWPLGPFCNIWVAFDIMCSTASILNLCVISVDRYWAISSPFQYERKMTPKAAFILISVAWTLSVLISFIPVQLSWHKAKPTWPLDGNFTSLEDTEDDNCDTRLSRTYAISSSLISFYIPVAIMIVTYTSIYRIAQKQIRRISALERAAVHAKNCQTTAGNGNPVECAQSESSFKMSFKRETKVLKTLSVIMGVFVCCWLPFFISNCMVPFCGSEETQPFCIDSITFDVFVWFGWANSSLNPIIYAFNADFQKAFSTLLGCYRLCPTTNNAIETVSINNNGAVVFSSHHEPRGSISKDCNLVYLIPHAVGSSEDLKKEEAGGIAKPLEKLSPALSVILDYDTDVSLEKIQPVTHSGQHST
# [5] = goldfish retina or rat striatum homogenate
Molecule,ED50 [1],Intrinsic Activity (%) [2],Ki [3],Ki [4],further results
"CCc1cc2c(s1)CN[C@H]1CCc3cc(O)c(O)cc3[C@H]21 (single isomer, unassigned) [Example 4, (-)-trans-2-ethyl-4,5,5a,6,7,11b-hexahydro-3-thia-5-aza-cyclopent-1-ena[c]phenanthrene-9,10-diol hydrobromide]",0.04 µmol/kg,,,,
"CCCCCCc1cc2c(s1)CN[C@@H]1CCc3cc(O)c(O)cc3[C@@H]21 (relative stereo) [Example 38, trans-2-Hexyl-4,5,5a,6,7,11b-hexahydro-3-thia-5-aza-cyclopent-1-ena[c]phenanthrene-9,10-diol TFA salt]",,58%,2580 nM,1430 nM,"EC50 [2, 5]: 285 nM"
"CC(C)(C)Cc1cc2c(s1)CN[C@H]1CCc3cc(O)c(O)cc3[C@H]21 (relative stereo) [Example 10, trans-2-(2,2-Dimethylpropyl)-4,5,5a,6,7,11b-hexahydro-3-thia-5-aza-cyclopent-1-ena[c]-phenanthrene-9,10-diol]",,50%,4600 nM,560 nM,"EC50 [2, 5]: 216 nM"
"CCCc1cc2c(s1)CNC1CCc3cc(OC(C)=O)c(OC(C)=O)cc3C21 (single isomer, unassigned; (-)) [Example 48, (-)-trans-9,10-Diacetyloxy-2-propyl-4,5,5a,6,7,11b-hexahydro-3-thia-5-aza-cyclopent-1-ena[c]phenanthrene hydrochloride]",0.04 µmol/kg,,,,
"CC(C)(C)c1cc2c(s1)CN[C@H]1CCc3cc(O)c(O)cc3[C@H]21 (single isomer, unassigned) [Example 24, (-)-trans-2-(1,1-Dimethylethyl)-4,5,5a,6,7,11b-hexahydro-3-thia-5-aza-cyclopent-1-ena[c]-phenanthrene-9,10-diol]",0.04 µmol/kg,,,,
"Cc1cc2c(s1)CN[C@H]1CCc3cc(O)c(O)cc3[C@H]21 (relative stereo) [Example 22, trans-2-methyl-4,5,5a,6,7,11b-hexahydro-3-thia-5-aza-cyclopent-1-ena[c]phenanthrene-9,10-diol hydrobromide]",0.2 µmol/kg,,,,
"Oc1cc2c(cc1O)[C@H]1c3cc(CC4CCCC4)sc3CN[C@@H]1CC2 (relative stereo) [Example 39, trans-2-(Cyclopentylmethyl)-4,5,5a,6,7,11b-hexahydro-3-thia-5-aza-cyclopent-1-ena[c]phenanthrene-9,10-diol hydrobromide]",,93%,1620 nM,450 nM,"EC50 [2, 5]: 110 nM"
"CC(C)CCc1cc2c(s1)[C@@H]1c3cc(O)c(O)cc3CC[C@H]1NC2 (relative stereo) [Example 30, trans-2-(3-Methylbutyl)-4,5,5a,6,7,11b-hexahydro-1-thia-5-aza-cyclopent-2-ena[c]phenanthrene-9,10-diol hydrobromide]",> 1 µmol/kg,70%,560 nM,62 nM,"EC50 [2, 5]: 105 nM"
"CCCc1cc2c(s1)CN[C@H]1CCc3cc(O)c(O)cc3[C@H]21 (relative stereo) [Example 5, trans-2-propyl-4,5,5a,6,7,11b-hexahydro-3-thia-5-aza-cyclopent-1-ena[c]phenanthrene-9,10-diol hydrobromide]",0.15 µmol/kg,,,,
"Cc1cc2c(s1)CN[C@H]1CCc3cc(O)c(O)cc3[C@H]21 (single isomer, unassigned) [Example 23, (-)-trans-2-Methyl-4,5,5a,6,7,11b-hexahydro-3-thia-5-aza-cyclopent-1-ena[c]-phenanthrene-9,10-diol]",0.05 µmol/kg,,,,
"CCCc1csc2c1CN[C@@H]1CCc3cc(O)c(O)cc3[C@@H]21 (relative stereo) [Example 52, trans-3-propyl-4,5,5a,6,7,11b-hexahydro-1-thia-5-aza-cyclopent-2-ena[c]phenanthrene-9,10-diol hydrochloride]",0.32 µmol/kg,,,,
"CC(C)(C)c1cc2c(s1)CN[C@H]1CCc3cc(O)c(O)cc3[C@H]21 (relative stereo) [Example 6, trans-2-(1,1-dimethylethyl)-4,5,5a,6,7,11b-hexahydro-3-thia-5-aza-cyclopent-1-ena[c]phenanthrene-9,10-diol hydrobromide]",0.12 µmol/kg,,,,
"Oc1cc2c(cc1O)[C@H]1c3cc(-c4cccs4)sc3CN[C@@H]1CC2 (relative stereo) [Example 37, trans-2-(2-Thiophenyl)-4,5,5a,6,7,11b-hexahydro-3-thia-5-aza-cyclopent-1-ena[c]phenanthrene-9,10-diol hydrobromide]",,65%,3190 nM,710 nM,"EC50 [2, 5]: 332 nM"
"CCCc1nc2c(o1)CN[C@@H]1CCc3cc(O)c(O)cc3[C@@H]21 (relative stereo) [Example 53, trans-2-propyl-4,5,5a,6,7,11b-hexahydro-1,5-diaza-3-oxa-cyclopent-1-ena[c]phenanthrene-9,10-diol dihydrobromide]",,83%,230 nM,154 nM,"EC50 [2, 5]: 1000 nM"
"CCc1cc2c(s1)CN[C@H]1CCc3cc(O)c(O)cc3[C@H]21 (relative stereo) [Example 3, trans-2-ethyl-4,5,5a,6,7,11b-hexahydro-3-thia-5-aza-cyclopent-1-ena[c]phenanthrene-9,10-diol hydrobromide]",0.077 µmol/kg,,,,
"CCCc1nc2c(o1)[C@@H]1c3cc(O)c(O)cc3CC[C@H]1NC2 (relative stereo) [Example 29, trans-2-Propyl-4,5,5a,6,7,11b-hexahydro-1-oxa-3,5-diaza-cyclopent-2-ena[c]phenanthrene-9,10-diol dihydrobromide]",0.41 µmol/kg,81%,,,EC50 [2]: 28 nM
"Oc1cc2c(cc1O)[C@@H]1c3sc(-c4ccccc4)cc3CN[C@H]1CC2 (relative stereo) [Example 19, trans-2-phenyl-4,5,5a,6,7,11b-hexahydro-1-thia-5-aza-cyclopent-2-ena[c]phenanthrene-9,10-diol hydrobromide]",,79%,750 nM,360 nM,EC50 [2]: 25 nM
"CCCc1cc2c(s1)CN[C@H]1CCc3cc(O)c(O)cc3[C@H]21 (single isomer, unassigned) [Example 20, (-)-trans-2-propyl-4,5,5a,6,7,11b-hexahydro-3-thia-5-aza-cyclopent-1-ena[c]phenanthrene-9,10-diol hydrobromide]",0.11 µmol/kg,,,,
"Cc1ccc(-c2cc3c(s2)CNC2CCc4cc(O)c(O)cc4C32)cc1 (stereo not shown) [Example 46, 2-(4-Methylphenyl)-4,5,5a,6,7,11b-hexahydro-3-thia-5-aza-cyclopent-1-ena[c]phenanthrene-9,10-diol hydrobromide]",,,> 5000 nM,> 5000 nM,
"Oc1cc2c(cc1O)[C@H]1c3cc(-c4ccccc4)oc3CN[C@@H]1CC2 (relative stereo) [Example 42, trans-2-Phenyl-4,5,5a,6,7,11b-hexahydro-3-oxa-5-aza-cyclopent-1-ena[c]phenanthrene-9,10-diol hydrochloride]",,59%,640 nM,453 nM,EC50 [2]: 78 nM
"2-propyl-4,5,5a,6,7,11b-hexahydro-1-thia-5-aza-cyc! opent-2-ena[c]phenanthrene-10-ol hydrobromide [Example 44]",,,,,agonist/antagonist properties at dopamine receptor ([2]; hydrobromide): no agonist properties; also recorded: dopamine antagonist
